Values quoted from earlier work as cited in US9974867B2, “Cytotoxic benzodiazepine derivatives” (priority 2014, dated 2018).

Conditions: Phase I clinical evaluation; cited from earlier work

Question: With `C=C1C[C@H]2C=Nc3cc(OCCCOc4cc5c(cc4OC)C(=O)N4CC(=C)C[C@H]4C=N5)c(OC)cc3C(=O)N2C1` [SJG-136] as the compound, how does the maximum tolerated dose read?
Answer: Its maximum tolerated dose is 45 μg/m^2.
